# Results: US5936105A, “14-EPI-19-nor-vitamin D compounds and methods” (Tetrionics, Inc., priority 1998, dated 1999)
# Entries after “also recorded” stand apart in the source; their conditions may differ.
# Legend:
# [1] = system: D deficient rat; assay: In vivo calcemic activity: intestinal calcium transport (everted gut sac technique); conditions: for TRANSPORT (S/M): intraperitoneal, mean ± SEM
# Procedure: (§1) In vivo Calcemic Activity
# (§2) These studies were carried out with five to six rats per group. Male weanling rats were fed a vitamin D-deficient diet for one week and then shifted to the same diet but with calcium removed for three weeks. The hypocalcemic rats were dosed intraperitoneally with the indicated dose of compound per day for a total of 7 days. Twenty-four hours after the last dose all animals were killed by decapitation and serum calcium was measured by atomic absorption spectroscopy in the presence of 1.0% lanthanium chloride. Intestinal calcium transport was measureed by the everted gut sac technique of Martin and Deluca.
# [2] = system: D deficient rat; assay: In vivo calcemic activity: serum calcium / bone calcium mobilization (atomic absorption spectroscopy); conditions: for SERUM CALCIUM: intraperitoneal, mean ± SEM; for effect on bone, in words: rat, in vivo
# Procedure: as §1, §2
# [3] = system: leukemia cells; conditions: U.S. Pat. No. 4,391,802; cited from earlier work
# [4] = biological target: T1, Procine Intestinal Nuclear Vitamin D Receptor (Sus scrofa, UniProt A3RGC1); conditions: VDR binding, ratio to 1,25(OH)2 D3
# T1 sequence (A3RGC1 1-427): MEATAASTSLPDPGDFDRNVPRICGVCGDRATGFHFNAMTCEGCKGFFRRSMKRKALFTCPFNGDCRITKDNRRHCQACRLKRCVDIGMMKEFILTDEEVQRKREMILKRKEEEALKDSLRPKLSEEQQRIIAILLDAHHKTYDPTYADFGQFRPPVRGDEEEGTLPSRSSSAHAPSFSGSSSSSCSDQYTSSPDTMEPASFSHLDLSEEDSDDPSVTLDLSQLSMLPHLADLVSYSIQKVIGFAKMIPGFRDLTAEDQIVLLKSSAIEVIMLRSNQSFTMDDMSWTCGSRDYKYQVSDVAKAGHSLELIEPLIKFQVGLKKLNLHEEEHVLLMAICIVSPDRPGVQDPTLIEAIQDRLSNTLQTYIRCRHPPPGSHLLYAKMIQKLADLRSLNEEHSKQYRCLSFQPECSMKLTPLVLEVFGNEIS
# [5] = biological target: T1, Procine Intestinal Nuclear Vitamin D Receptor; assay: biochemical
# Description: Binding to the Procine Intestinal Nuclear Vitamin D Receptor.
# [6] = system: HL-60 cells; assay: Differentiation of HL-60 cells (NBT reduction assay); format: cell-based, human; conditions: for Activity vs. 1,25(OH)2 D3: HL-60 differentiation, ratio to 1,25(OH)2 D3; for EC50: Homo sapiens, read-out: EC50 (concentration to induce differentiation in 50% of the cells; text: IC50), NBT reduction, HL-60; for in vitro differentiative (D) and anti-proliferative (I) activity, in words: HL-60, differentiation and proliferation; for differentiative activity (D) used for T.P.: relative to 1,25-(OH)2 D3
# Procedure: Differentiation of HL-60 Cells.
# The ability of the 14-epi-19-nor-vitamin analogs and the corresponding 19-nor-vitamin D analogs to induce differentiation in the human HL-60 promyelocyte cell line was measured by a nitroblue tetrazolium (NBT) reduction assay.
# [7] = system: HL-60 cells; assay: Inhibition of HL-60 cell proliferation (thymidine incorporation assay); format: cell-based, human; conditions: for Activity vs. 1,25(OH)2 D3: HL-60 proliferation, ratio to 1,25(OH)2 D3; for EC50: Homo sapiens, read-out: EC50 (50% reduction in thymidine incorporation; text: IC50), thymidine incorporation, HL-60; for anti-proliferative activity (I) used for T.P.: relative to 1,25-(OH)2 D3
# Procedure: Inhibition of HL-60 Cell Proliferation.
# The ability of the 14-epi-19-nor-vitamin D analogs and the corresponding 19-nor-vitamin D analogs to inhibit proliferation of the HL-60 cell line was measured by thymidine incorporation assay.
# [8] = system: D deficient rat; assay: In vivo calcemic activity, overall; conditions: for calcemic activity used for T.P.: relative to 1,25-(OH)2 D3; for calcemic activity, in words: relative to 1,25-(OH)2 D3 or 19-nor compounds
# Procedure: as §1, §2
# [9] = system: D deficient rat; assay: In vivo activation of pro-drug (25-hydroxylation by the liver); conditions: inferred from in vivo activity
# Procedure: as §2
# The in vivo results also establish the PRO-DRUG concept for the 14-epi-19-nor-25-deoxy-analog. […] This minimal bone activity resulting in lower calcemic toxicity may have important clinical implications.
# [10] = TABLE 2, 250 pmol/d/7 days, 5 rats
# [11] = TABLE 3, 260 pmol/d/7 days, 6 rats
# [12] = TABLE 1, 250 pmol/d/7 days, 5 rats
# [13] = TABLE 1, 625 pmol/d/7 days, 5 rats
# [14] = TABLE 1, 1300 pmol/d/7 days, 5 rats
# [15] = TABLE 2, 625 pmol/d/7 days, 5 rats
# [16] = TABLE 2, 1300 pmol/d/7 days, 5 rats
# [17] = TABLE 3, 625 pmol/d/7 days, 6 rats
# [18] = TABLE 3, 1300 pmol/d/7 days, 6 rats
Structure (SMILES),"TRANSPORT (S/M) [1, 10] [S/M]","TRANSPORT (S/M) [1, 11] [S/M]","SERUM CALCIUM [2, 10] [mg/100 ml]","SERUM CALCIUM [2, 11] [mg/100 ml]","TRANSPORT (S/M) [1, 12] [S/M]","TRANSPORT (S/M) [1, 13] [S/M]","Activity vs. 1,25(OH)2 D3 [4]","SERUM CALCIUM [2, 12] [mg/100 ml]","SERUM CALCIUM [2, 13] [mg/100 ml]",EC50 [5] [nM],"Activity vs. 1,25(OH)2 D3 [6]",EC50 [6] [nM],"TRANSPORT (S/M) [1, 15] [S/M]","TRANSPORT (S/M) [1, 16] [S/M]","Activity vs. 1,25(OH)2 D3 [7]",EC50 [7] [nM],"SERUM CALCIUM [2, 15] [mg/100 ml]","SERUM CALCIUM [2, 16] [mg/100 ml]",further results
"C=C1/C(=C\C=C2/CCC[C@]3(C)[C@@H]([C@H](C)CCCC(C)(C)O)CC[C@@H]23)C[C@@H](O)C[C@@H]1O [1,25(OH)2 D3, 1α,25-dihydroxyvitamin D3]",7.8 ± 0.4,7.18 ± 0.47,5.3 ± 0.3,5.36 ± 0.27,–,–,–,–,–,–,–,–,–,–,–,–,–,–,"antileukemic activity (induction of differentiation), in words [3]: potent antileukemic activity"
CC(C)CCC[C@H](C)[C@H]1CC[C@H]2/C(=C/C=C3C[C@@H](O)C[C@H](O)C3)CCC[C@]12C [20-epi-19-nor-1(OH)D3],–,–,–,–,7.6 ± 0.5,9.2 ± 1.1,0.0013,4.1 ± 0.1,5.4 ± 0.3,600,–,–,–,–,–,–,–,–,"TRANSPORT (S/M) [1, 14]: 11.7 ± 1.4 S/M; SERUM CALCIUM [2, 14]: 6.7 ± 0.2 mg/100 ml"
"C[C@H](CCCC(C)(C)O)[C@H]1CC[C@H]2/C(=C/C=C3C[C@@H](O)C[C@H](O)C3)CCC[C@]12C [19-nor-1,25(OH)2 D3, 19-nor-1,25-dihydroxyvitamin D3, reference compound]",4.8 ± 0.4,–,3.6 ± 0.1,–,–,–,0.2,–,–,4.2,0.40,13,4.9 ± 0.5,4.8 ± 0.5,0.5,60,3.6 ± 0.2,3.7 ± 0.2,–
"C=C1/C(=C\C=C2/CCC[C@]3(C)[C@@H]([C@H](C)CCCC(C)C)CC[C@@H]23)C[C@@H](O)C[C@@H]1O [1(OH)D3, 1α-hydroxyvitamin D3]",–,–,–,–,8.1 ± 0.1,10.6 ± 1.4,–,4.8 ± 0.3,5.9 ± 0.1,–,–,–,–,–,–,–,–,–,"antileukemic activity (induction of differentiation), in words [3]: potent antileukemic activity"
"C[C@H](CCCC(C)(C)O)[C@H]1CC[C@@H]2/C(=C/C=C3C[C@@H](O)C[C@H](O)C3)CCC[C@@]21C [[27], 14-epi-19-nor-1α,25-dihydroxyvitamin D3]",4.1 ± 0.4,–,3.6 ± 0.2,–,–,–,0.18,–,–,4.5,0.33,15,3.2 ± 0.4,3.5 ± 0.3,0.4,80,3.2 ± 0.1,3.4 ± 0.1,"calcemic activity relative to the natural hormone ([8]; 5× the dose of 1,25-(OH)2 D3): less than 20%; calcemic activity used for T.P. [8]: < 0.2; calcemic activity, in words [8]: no calcemic activity at 5× the dose of 1,25-(OH)2 D3; also recorded: greatly reduced calcemic activity; in vitro differentiative (D) and anti-proliferative (I) activity, in words [6]: approximately half as active as 1,25-(OH)2 D3; differentiative activity (D) used for T.P. [6]: 0.33; cellular activity, in words ([6]; relative to native hormone): cellular activity similar to the native hormone; anti-proliferative activity (I) used for T.P. [7]: 0.4"
"C[C@@H](CCCC(C)(C)O)[C@H]1CC[C@@H]2/C(=C/C=C3C[C@@H](O)C[C@H](O)C3)CCC[C@@]21C [[29], 14-epi-20-epi-19-nor-1α,25-dihydroxyvitamin D3]",–,4.36 ± 0.30,–,4.02 ± 0.16,–,–,0.33,–,–,2.5,10.0,0.5,–,–,45,0.66,–,–,"calcemic activity used for T.P. [8]: < 0.2; calcemic activity, in words [8]: greatly reduced; in vitro differentiative (D) and anti-proliferative (I) activity, in words [6]: most potent analog; times more potent than 1,25-(OH)2 D3 (D) ([6]; differentiative (D)): 10 times; differentiative activity (D) used for T.P. [6]: 8.0; TRANSPORT (S/M) [1, 17]: 6.94 ± 0.27 S/M; TRANSPORT (S/M) [1, 18]: 7.14 ± 0.44 S/M; activity on gut, in words ([1]; rat, in vivo): only minimal gut activity; gut activity relative to the natural hormone ([1]; rat, in vivo): 20%; times more potent than 1,25-(OH)2 D3 (I) ([7]; anti-proliferative (I)): 45 times; anti-proliferative activity (I) used for T.P. [7]: 56; SERUM CALCIUM [2, 17]: 3.66 ± 0.06 mg/100 ml; SERUM CALCIUM [2, 18]: 4.10 ± 0.20 mg/100 ml; effect on bone, in words [2]: no effect on bone at any of the doses tested"
CC(C)CCC[C@@H](C)[C@H]1CC[C@H]2/C(=C/C=C3C[C@@H](O)C[C@H](O)C3)CCC[C@]12C [19-nor-1(OH)D3],–,–,–,–,6.3 ± 0.7,8.6 ± 0.7,–,3.4 ± 0.2,3.7 ± 0.2,–,–,–,–,–,–,–,–,–,–
"CC(C)CCC[C@H](C)[C@H]1CC[C@@H]2/C(=C/C=C3C[C@@H](O)C[C@H](O)C3)CCC[C@@]21C [[28], 14-epi-20-epi-19-nor-1α-hydroxyvitamin D3]",–,3.80 ± 0.23,–,3.96 ± 0.05,–,–,< 0.0008,–,–,> 1000,–,–,–,–,–,–,–,–,"in vivo activation / 25-hydroxylation / clearance, in words [9]: has been 25-hydroxylated by the liver; also recorded: activated in vivo to the active drug product; TRANSPORT (S/M) [1, 17]: 5.14 ± 0.66 S/M; TRANSPORT (S/M) [1, 18]: 5.90 ± 0.49 S/M; activity on gut, in words ([1]; rat, in vivo): reduced activity on gut compared to the 25-hydroxy drug compound; SERUM CALCIUM [2, 17]: 4.11 ± 0.10 mg/100 ml; SERUM CALCIUM [2, 18]: 3.79 ± 0.05 mg/100 ml; effect on bone, in words [2]: no activity on bone"
"C[C@@H](CCCC(C)(C)O)[C@H]1CC[C@H]2/C(=C/C=C3C[C@@H](O)C[C@H](O)C3)CCC[C@]12C [20-epi-19-nor-1,25(OH)2 D3, reference compound]",7.3 ± 0.1,–,5.7 ± 0.5,–,–,–,1.0,–,–,0.8,25,0.2,8.2 ± 0.7,8.7 ± 0.7,7.5,4,6.3 ± 0.4,6.6 ± 0.5,–
